Test results from ChEMBL document CHEMBL1201862, “PubChem BioAssay data set” (2004).
Calls of active or inactive are those of the source.

Columns and labels:
Escherichia coli = assay: microbe, parasite or virus in culture
Cytochrome P450 2D6 = Cytochrome P450 2D6 (Homo sapiens, UniProt P10635);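 also: CYP2D6 member of a cytochrome P450 panel assay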
[1] = viability of PTEN-deleted HCT116 cells – cell-based, HCT116 PTEN knockout, dose response (AID 1047); assay type: functional;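 also: HCT116 colon tumor cells with PTEN knocked out; cells exposed to compound for 60 hours before readout; potency for loss of cell viability measured by luminescence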
[2] = viability of HCT116 lacking mutant beta-catenin – cell-based, human colon tumor, dose response (AID 1045); assay type: functional;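 also: HCT116 colon tumor cells with beta catenin knocked out; cells exposed to compound for 60 hours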
[3] = target: T1, Microphthalmia-associated transcription factor (Homo sapiens, UniProt O75030); assay: reducers of TRPM1 reporter luminescence, concentration series – cell-based, SK-MEL-5, cherry-picked, set 3, MITF inhibitor project, dose response (AID 493073); assay type: functional;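 also: SK-MEL-5 melanoma cells with luciferase driven by the MITF target TRPM1 promoter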
T1 sequence (O75030 whole entry): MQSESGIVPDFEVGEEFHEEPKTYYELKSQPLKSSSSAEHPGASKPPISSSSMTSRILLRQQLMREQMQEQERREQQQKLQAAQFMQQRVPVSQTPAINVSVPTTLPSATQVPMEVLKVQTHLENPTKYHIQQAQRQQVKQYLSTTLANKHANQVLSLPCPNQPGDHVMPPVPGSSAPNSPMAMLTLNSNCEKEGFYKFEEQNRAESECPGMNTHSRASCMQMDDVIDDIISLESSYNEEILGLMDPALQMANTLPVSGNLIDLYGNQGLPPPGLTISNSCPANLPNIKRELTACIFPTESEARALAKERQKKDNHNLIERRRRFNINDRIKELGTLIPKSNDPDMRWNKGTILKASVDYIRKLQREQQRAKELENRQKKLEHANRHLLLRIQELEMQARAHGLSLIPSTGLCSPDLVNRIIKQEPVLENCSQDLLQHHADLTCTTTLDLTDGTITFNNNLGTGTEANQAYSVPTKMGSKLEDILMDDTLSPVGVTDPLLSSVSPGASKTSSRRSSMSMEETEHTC

[4] = target: T2, Replicative DNA helicase DnaB (Mycobacterium tuberculosis, UniProt P9WMR3); assay: DnaB intein splicing inhibitors, dose response, biochemical, cell-free fluorescence (AID 449749); assay type: functional
T2 sequence (P9WMR3 whole entry): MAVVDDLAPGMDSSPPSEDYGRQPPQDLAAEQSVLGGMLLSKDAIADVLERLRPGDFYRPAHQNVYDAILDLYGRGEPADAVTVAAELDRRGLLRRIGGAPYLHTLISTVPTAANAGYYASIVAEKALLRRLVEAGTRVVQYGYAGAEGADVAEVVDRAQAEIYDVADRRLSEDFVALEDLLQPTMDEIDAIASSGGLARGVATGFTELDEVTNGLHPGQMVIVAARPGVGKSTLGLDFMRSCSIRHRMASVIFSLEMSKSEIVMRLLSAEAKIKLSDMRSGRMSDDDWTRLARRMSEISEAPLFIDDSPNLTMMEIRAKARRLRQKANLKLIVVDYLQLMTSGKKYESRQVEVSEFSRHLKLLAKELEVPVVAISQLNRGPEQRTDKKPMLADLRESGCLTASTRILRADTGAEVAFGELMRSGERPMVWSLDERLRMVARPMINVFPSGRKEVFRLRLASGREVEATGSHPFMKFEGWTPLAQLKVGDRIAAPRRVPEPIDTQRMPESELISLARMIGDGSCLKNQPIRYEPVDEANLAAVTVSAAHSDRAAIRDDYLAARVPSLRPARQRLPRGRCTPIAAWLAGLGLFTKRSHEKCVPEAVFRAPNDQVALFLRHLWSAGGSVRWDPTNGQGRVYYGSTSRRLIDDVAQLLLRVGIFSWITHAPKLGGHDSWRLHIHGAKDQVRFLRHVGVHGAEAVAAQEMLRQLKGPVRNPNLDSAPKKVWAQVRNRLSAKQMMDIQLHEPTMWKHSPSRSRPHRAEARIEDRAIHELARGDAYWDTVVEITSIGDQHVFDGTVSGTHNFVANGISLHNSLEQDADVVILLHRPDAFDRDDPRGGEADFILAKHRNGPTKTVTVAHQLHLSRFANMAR

Protein RecA = target: T3, Protein RecA (Mycobacterium tuberculosis, UniProt P9WHJ3); assay: Fluorescence Cell-Free Homogeneous Dose Retest to Identify Inhibitors of RecA-Intein Splicing Activity. [Related pubchem assays (depositor defined):AID2097, AID2223, AID489010, AID492950]; assay type: functional
T3 sequence (P9WHJ3 whole entry): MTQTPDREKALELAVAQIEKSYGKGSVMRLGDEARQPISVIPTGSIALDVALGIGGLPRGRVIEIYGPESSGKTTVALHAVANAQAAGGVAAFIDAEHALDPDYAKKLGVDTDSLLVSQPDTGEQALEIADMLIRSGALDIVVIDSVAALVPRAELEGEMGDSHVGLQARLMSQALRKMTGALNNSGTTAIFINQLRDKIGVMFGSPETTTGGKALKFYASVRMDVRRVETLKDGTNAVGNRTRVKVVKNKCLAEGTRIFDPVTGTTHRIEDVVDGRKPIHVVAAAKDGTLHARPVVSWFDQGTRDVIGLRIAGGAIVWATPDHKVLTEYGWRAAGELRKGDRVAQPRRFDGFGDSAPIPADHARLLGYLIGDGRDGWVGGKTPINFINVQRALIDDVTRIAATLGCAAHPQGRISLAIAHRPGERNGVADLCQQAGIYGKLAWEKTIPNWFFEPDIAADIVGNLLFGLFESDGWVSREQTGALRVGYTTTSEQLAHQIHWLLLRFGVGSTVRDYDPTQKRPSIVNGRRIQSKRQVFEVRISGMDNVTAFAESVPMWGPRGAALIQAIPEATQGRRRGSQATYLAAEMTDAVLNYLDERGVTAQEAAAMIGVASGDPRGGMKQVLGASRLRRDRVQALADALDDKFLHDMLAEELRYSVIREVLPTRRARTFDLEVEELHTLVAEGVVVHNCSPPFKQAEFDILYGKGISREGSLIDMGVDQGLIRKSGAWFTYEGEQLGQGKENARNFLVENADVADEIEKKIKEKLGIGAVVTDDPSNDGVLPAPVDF

HeLa = assay: ATP-based viability loss in HeLa cells – cell-based, CellTiter-Glo luminescence, cherry-pick samples, cytotoxicity control for MITF activator project, dose response (AID 540259); assay type: functional; conditions: Homo sapiens
[5] = HEK-293T cell viability reduction – luminescence, B-cell screen hits, cytotoxicity control for BCR NF-kB inhibitor project, dose response (AID 489021); assay type: functional, cell-based;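 also: HEK-293T cells carrying an NF-kB luciferase reporter; cells exposed to compound for about 14 hours before viability readout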
[6] = target: T4, Carboxy-terminal domain RNA polymerase II polypeptide A small phosphatase 1 (Homo sapiens, UniProt Q9GZU7); assay: CTDSP1 inhibitors, concentration-response, biochemical, absorbance readout, ultra-high-throughput screen actives (AID 540297); assay type: functional
T4 sequence (Q9GZU7 whole entry): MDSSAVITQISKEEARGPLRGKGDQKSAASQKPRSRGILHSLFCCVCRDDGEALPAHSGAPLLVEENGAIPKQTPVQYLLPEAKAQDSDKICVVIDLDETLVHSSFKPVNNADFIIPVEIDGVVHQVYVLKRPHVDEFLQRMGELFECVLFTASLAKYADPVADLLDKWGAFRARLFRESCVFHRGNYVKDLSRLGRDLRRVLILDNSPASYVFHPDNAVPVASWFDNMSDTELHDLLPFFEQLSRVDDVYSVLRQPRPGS

Paired box protein Pax-8 = Paired box protein Pax-8 (Homo sapiens, UniProt Q06710); assay: PAX8 transcriptional activity inhibition in RMG-I – RMG-I cells, luciferase, cherry-pick, dose response (AID 687027); assay type: functional, cell-based;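 also: luciferase reporter driven by Pax8 target thyroperoxidase promoter measured by SteadyGlo luminescence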
Chain of Paired box protein Pax-8 (Q06710 whole entry): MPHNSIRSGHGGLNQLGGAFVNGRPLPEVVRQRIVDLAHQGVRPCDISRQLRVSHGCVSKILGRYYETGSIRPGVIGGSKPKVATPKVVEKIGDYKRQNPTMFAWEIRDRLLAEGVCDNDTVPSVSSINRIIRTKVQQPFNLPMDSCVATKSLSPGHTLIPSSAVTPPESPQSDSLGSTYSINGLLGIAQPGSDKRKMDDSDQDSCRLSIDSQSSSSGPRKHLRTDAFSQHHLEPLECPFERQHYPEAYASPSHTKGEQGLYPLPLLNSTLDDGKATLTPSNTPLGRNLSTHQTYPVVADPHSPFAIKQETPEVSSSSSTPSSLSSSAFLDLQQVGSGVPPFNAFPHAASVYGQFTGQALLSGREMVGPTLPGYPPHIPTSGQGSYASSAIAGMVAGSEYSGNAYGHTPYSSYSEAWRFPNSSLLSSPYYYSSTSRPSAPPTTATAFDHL

[7] = Luminescence Cell-Based Dose Retest to Confirm Inhibitors of Cancer Stem Cells. [Related pubchem assays (depositor defined):AID2717, AID2721]; assay type: functional; conditions: Homo sapiens
INS1 = assay: INS-1E survival protection against cytokine death – cell-based, luminescence, retest, dose response (AID 449756); assay type: functional; conditions: Rattus norvegicus;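 also: cell death triggered by IL-1 beta plus TNF-alpha plus IFN-gamma mixture; protective hits raise ATP signal compared with cytokine alone wells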
Cytochrome P450 2C19 = Cytochrome P450 2C19 (Homo sapiens, UniProt P33261); assay: Cytochrome panel assay with activity outcomes. Panel member name: p450-cyp2c19 Compounds with AC50 equal or less than 10 uM are considered active; assay type: functional
Chain of Cytochrome P450 2C19 (P33261 whole entry): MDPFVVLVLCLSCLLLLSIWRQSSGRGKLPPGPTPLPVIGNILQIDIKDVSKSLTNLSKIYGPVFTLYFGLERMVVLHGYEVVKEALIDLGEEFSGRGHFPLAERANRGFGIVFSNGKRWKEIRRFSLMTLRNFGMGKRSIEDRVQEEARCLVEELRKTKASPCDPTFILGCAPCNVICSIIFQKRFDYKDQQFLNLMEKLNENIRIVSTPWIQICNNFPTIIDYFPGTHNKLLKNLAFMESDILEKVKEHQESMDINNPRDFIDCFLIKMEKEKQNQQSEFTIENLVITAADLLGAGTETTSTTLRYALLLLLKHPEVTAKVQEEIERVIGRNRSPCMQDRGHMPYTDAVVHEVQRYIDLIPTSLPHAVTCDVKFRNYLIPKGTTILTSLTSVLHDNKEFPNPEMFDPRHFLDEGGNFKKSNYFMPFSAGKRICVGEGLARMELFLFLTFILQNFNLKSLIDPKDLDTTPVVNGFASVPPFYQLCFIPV

Cytochrome P450 2C9 = Cytochrome P450 2C9 (Homo sapiens, UniProt P11712)
Chain of Cytochrome P450 2C9 (P11712 whole entry): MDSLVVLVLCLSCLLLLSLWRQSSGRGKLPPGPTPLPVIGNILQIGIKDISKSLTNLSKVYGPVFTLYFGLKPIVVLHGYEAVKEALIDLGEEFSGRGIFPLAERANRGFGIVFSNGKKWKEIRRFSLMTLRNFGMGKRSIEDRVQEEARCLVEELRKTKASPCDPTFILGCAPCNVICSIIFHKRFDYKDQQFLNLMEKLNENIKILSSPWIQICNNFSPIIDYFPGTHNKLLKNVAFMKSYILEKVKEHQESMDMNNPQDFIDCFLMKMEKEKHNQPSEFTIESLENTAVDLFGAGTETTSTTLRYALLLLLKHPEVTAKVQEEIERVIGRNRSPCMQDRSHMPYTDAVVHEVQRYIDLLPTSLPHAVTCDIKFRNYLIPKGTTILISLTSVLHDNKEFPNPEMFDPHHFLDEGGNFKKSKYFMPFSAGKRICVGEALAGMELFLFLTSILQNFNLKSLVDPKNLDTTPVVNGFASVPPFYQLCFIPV

[8] = target: Dual specificity tyrosine-phosphorylation-regulated kinase 1A (Rattus norvegicus, UniProt Q63470); assay type: biochemical, Homo sapiens
Cytochrome P450 1A2 = target: T5, Cytochrome P450 1A2 (Homo sapiens, UniProt P05177);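 also: PubChem cytochrome P450 panel assay, CYP1A2 panel member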
T5 sequence (P05177 whole entry): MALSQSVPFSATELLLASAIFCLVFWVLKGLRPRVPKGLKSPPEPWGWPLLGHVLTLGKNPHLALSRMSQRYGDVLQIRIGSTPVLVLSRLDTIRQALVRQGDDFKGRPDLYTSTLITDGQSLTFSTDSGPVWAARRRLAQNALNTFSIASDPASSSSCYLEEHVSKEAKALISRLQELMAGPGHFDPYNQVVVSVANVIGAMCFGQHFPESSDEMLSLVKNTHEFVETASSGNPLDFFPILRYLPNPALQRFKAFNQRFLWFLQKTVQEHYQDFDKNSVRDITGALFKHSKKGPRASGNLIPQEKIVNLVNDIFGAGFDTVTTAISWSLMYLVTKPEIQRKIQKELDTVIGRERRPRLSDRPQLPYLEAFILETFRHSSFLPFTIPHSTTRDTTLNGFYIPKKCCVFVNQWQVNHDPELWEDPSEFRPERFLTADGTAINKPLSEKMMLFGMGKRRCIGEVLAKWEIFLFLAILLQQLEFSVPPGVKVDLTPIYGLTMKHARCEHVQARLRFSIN

Cytochrome P450 3A4 = Cytochrome P450 3A4 (Homo sapiens, UniProt P08684);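 also: CYP3A4 tested as one member of a cytochrome P450 panel screen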
Chain of Cytochrome P450 3A4 (P08684 whole entry): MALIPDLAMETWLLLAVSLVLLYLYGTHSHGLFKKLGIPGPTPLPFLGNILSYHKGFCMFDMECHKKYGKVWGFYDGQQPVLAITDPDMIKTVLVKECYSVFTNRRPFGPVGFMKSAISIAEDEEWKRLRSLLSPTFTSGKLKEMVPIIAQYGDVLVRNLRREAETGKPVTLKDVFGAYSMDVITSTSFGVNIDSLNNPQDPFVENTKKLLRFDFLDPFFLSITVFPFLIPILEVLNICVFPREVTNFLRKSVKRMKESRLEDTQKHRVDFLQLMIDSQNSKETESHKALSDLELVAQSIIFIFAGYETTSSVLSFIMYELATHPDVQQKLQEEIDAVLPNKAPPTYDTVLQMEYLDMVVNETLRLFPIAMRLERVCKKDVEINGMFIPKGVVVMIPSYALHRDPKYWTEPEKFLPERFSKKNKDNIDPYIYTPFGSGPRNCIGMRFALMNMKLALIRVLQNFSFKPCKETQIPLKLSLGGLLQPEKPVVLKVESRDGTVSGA

[9] = target: Induced myeloid leukemia cell differentiation protein Mcl-1 (Homo sapiens, UniProt Q07820); assay type: functional
Chain of Induced myeloid leukemia cell differentiation protein Mcl-1 (Q07820 whole entry): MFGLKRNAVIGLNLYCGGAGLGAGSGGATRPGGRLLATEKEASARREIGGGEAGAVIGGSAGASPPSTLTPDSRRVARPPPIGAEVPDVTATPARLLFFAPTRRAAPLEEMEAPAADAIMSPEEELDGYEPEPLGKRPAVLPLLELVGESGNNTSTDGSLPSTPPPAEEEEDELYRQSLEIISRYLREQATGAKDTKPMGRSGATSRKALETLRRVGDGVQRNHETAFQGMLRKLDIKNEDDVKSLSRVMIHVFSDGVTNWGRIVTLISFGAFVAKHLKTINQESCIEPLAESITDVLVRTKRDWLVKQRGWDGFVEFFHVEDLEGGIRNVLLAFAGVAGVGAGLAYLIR

[10] = viability loss in THP-1 monocytes – THP-1 cells, cytotoxicity control for Vif-APOBEC3G degradation inhibitor project, dose response (AID 1117359); assay type: functional; conditions: THP-1
[11] = viability of uninfected HEp-2 cells – cell-based, HTS, cytotoxicity control for RSV inhibitor project, dose response (AID 2410); assay type: functional; conditions: human respiratory syncytial virus
[12] = Luminescence Cell-Based Dose Response HTS to Identify Activators of Luciferase Translation or Activity in H4 […] Cells. [Related pubchem assays: 1829 (Project Summary), 1814 (Primary HTS)]; assay type: functional
H4 = assay: Luminescence Cell-Based Dose Response HTS to Identify Activators of 5'UTR Stem-Loop Driven Prion Protein mRNA Translation in H4 Neuroglioblastoma Cells. [Related pubchem assays: 1829 (Project Summary), 1814 (Primary HTS)]; assay type: functional; conditions: Homo sapiens

Chain of Cytochrome P450 2D6 (P10635 whole entry): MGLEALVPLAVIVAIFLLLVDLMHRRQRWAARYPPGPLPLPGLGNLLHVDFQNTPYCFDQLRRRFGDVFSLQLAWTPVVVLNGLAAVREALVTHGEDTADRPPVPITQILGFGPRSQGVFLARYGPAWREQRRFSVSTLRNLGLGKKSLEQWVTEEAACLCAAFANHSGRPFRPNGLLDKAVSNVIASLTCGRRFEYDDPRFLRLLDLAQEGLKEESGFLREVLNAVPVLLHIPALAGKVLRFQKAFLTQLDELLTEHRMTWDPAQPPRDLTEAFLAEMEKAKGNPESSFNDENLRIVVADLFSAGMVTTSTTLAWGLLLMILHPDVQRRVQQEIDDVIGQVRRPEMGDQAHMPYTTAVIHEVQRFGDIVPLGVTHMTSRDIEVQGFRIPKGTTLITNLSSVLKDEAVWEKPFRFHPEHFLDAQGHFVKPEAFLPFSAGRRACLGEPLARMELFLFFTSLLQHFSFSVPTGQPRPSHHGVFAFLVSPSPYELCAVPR

Cc1ccc(-c2cc(C(F)F)n3ncc(C(=O)Nc4ccc(S(=O)(=O)Nc5ccccc5C)cc4)c3n2)cc1
AC50 (Escherichia coli): 21.5 µM (active)

O=S(=O)(O)c1ccc(/N=N\c2ccccc2)cc1
AC50 (Cytochrome P450 2D6): inconclusive

O=C(CCl)N(c1ccccc1)c1c[nH]c2ccccc12
EC50 [1]: 3.78 µM (active) | EC50 [2]: 3.3 µM (active) | AC50 [3]: 5.09 µM (active) | AC50 [4]: 8.51 µM (active) | EC50 (Protein RecA): 0.361 µM (active)

O=C(NCCc1c[nH]c2ccccc12)c1cc(Cl)c2c(c1)OCO2
AC50 (HeLa): 70.3 µM (active)

CCOc1ccc(/C=C2\SC(=S)N(CCC(=O)Nc3cccc(C(=O)O)c3)C2=O)cc1
IC50 [5]: > 80 µM (inactive) | IC50 [6]: 3.77 µM (active)

Cc1ccc(NC(=O)c2ccc([N+](=O)[O-])s2)cc1S(=O)(=O)N1CCOCC1
AC50 [3]: 3.78 µM (active) | AC50 (Paired box protein Pax-8): 3.94 µM (active)

CCCCNc1c(-c2ccc(-c3cccc(Cl)c3)cc2)nc2ccccn12
AC50 [7]: 3.86 µM (active) | AC50 (INS1): 6.04 µM (active) | AC50 (HeLa): 32.4 µM (active)

COC(=O)CNC(=O)CN1C(=O)N(c2ccccc2)C(N(O)C(=O)Nc2ccccc2)C1(C)C (configuration not stated)
AC50 (Cytochrome P450 2C19; read-out: AC50): 3.55 µM (inconclusive) | AC50 (Cytochrome P450 2C9): 10 µM (inconclusive) | AC50 (Cytochrome P450 2D6): inconclusive

CCOC(=O)C1(C)C(C(=O)OC)=C(c2ccc(OC)cc2)c2ccccc2N1C(=O)OC (configuration not stated)
IC50 [6]: 29.5 µM (active)

CC(=O)O[C@H](COc1c2ccoc2cc2oc(=O)ccc12)C(C)(C)O
AC50 [8]: 3.74 µM (active)

CC(=O)COC(=O)CCc1nc2ccccc2nc1O
AC50 (Cytochrome P450 2D6): inconclusive

Cc1cc2ccccc2nc1SCC(=O)Nc1nc(-c2ccccc2)cs1
AC50 (Cytochrome P450 1A2): 0.2 µM (inconclusive) | AC50 (Cytochrome P450 3A4): 0.178 µM (inconclusive) | AC50 (Cytochrome P450 2C9): 1.12 µM (inconclusive) | AC50 (Cytochrome P450 2D6): inconclusive

CC(=O)c1ccc(NC(=O)CSc2nnc(-c3ccco3)c(-c3ccco3)n2)cc1
IC50 [9]: 8.94 µM (active) | IC50 [6]: 3.88 µM (active) | CC50 [10]: > 40 µM (active)

CN(CCC#N)C(=O)c1cc2c(s1)-c1ccccc1SC2
CC50 [11]: 28 µM (active) | AC50 (HeLa): 63.4 µM (active)

COc1cc(/C=C(\C#N)c2nn(CCO)c(N)c2C#N)cc(OC)c1OC
AC50 (Escherichia coli): 29 µM (active)

COc1ccc(-c2nnn(Cc3ccccc3F)n2)cc1
EC50 [12]: 1.75 µM (active) | EC50 (H4): 44.6 µM (inconclusive) | AC50 (HeLa): 60.2 µM (active)

CCCCSc1nc2c(c(=O)[nH]c(=O)n2C)n1CCc1ccccc1
AC50 (Escherichia coli): 50.8 µM (active)

COc1ccc(C(=O)C2=C(O)C(=O)N(CCCC(=O)O)C2c2ccc(OC)cc2)cc1 (configuration not stated)
AC50 (Cytochrome P450 2C19): inconclusive | AC50 (Cytochrome P450 2D6): inconclusive
